Test results reported in US12503506B2, “Dual drug antibody-drug conjugates” (priority 2019, dated 2025).

What was measured:
Namalwa wild type cells = test: MTT cytotoxicity assay in Namalwa wild type cells; type: cell-based; details: 72 h incubation, read-out: IC50 (cytotoxicity, cell viability by MTT)
Experimental: (§1) Namalwa 21 nM VCR (multidrug-resistant cells by exposure to vincristine (21 nM), and Namalwa wild type (ATCC CRL-1432) cells were cultured in ATCC-formulated RPMI-1640 medium with L-glutamine (2 mM), sodium bicarbonate (1.5 g L-1), glucose (4.5 g L^−1), HEPES (10 mM) and sodium pyruvate (1.0 mM). The media was supplemented with penicillin (100 U mL^−1) and streptomycin (100 μg mL^−1, Mediatech) and fetal bovine serum (FBS, 10%, BenchMark). Cells were maintained in a humid 5% CO2 atmosphere at 37° C. and subcultured every 2-3 days.
(§2) Cytotoxicity of PCTX and compounds 2, 2& 10, 15 and 17 was determined using the MTT assay. On the day of exposure, exponentially growing cells were plated at 25,000 cells/well in 160 μL in 96-well tissue culture plates (Nunc). Cells were then incubated with medium (control) or compounds (20 μL, 10× in cell culture medium) at the indicated final concentrations (0.1-1000 nM). At 68 h, MTT reagent (5 mg mL^−1 in PBS, 20 μL/well) was added to each well. The plate was further incubated at 37° C. At 72 h the plate was centrifuged at 1400 rpm for 10 min at 4° C. and supernatants were carefully removed. DMSO (100 μL/well) was added to dissolve the water-insoluble formazan salt. The absorbance was measured at 545 nm using a microplate reader (BMG Labtech). Data points were collected in triplicate and expressed as normalized values for untreated control cells (100%). […]

[1] = system: multidrug-resistant Namalwa cell line (MDR+ve); test: MTT cytotoxicity assay in multidrug-resistant Namalwa cells; type: cell-based; details: 72 h
Experimental: as §1, §2

| Compound | IC50 (Namalwa wild type cells) | activity (cytotoxicity) in MDR+ve cell line [1] |
| --- | --- | --- |
| CC(=O)O[C@H]1C(=O)[C@]2(C)[C@@H](O)CC3OC[C@@]3(OC(C)=O)[C@H]2[C@H](OC(=O)c2ccccc2)[C@]2(O)C[C@H](OC(=O)[C@H](OC(=O)CCC(=O)NCCOCCOCCNC(=O)OCC3C4CCC#CCCC43)[C@@H](NC(=O)c3ccccc3)c3ccccc3)C(C)=C1C2(C)C (stereo partly drawn) [Compound 2, (4S,4aS,6R,9S,11S,12S,12aR,12bS)-9-(((19R)-19-((S)-benzamido(phenyl)methyl)-1-(bicyclo[6.1.0]non-4-yn-9-yl)-3,14,17-trioxo-2,7,10,18-tetraoxa-4,13-diazaicosan-20-oyl)oxy)-12-(benzoyloxy)-4,11-dihydroxy-4a,8,13,13-tetramethyl-5-oxo-3,4,4a,5,6,9,10,11,12,12a-decahydro-1H-7,11-methanocyclodeca[3,4]benzo[1,2-b]oxete-6,12b(2aH)-diyl diacetate] | 26 nM | no appreciable activity |
| CC(=O)O[C@H]1C(=O)[C@@]2(C)[C@H]([C@H](OC(=O)c3ccccc3)[C@]3(O)C[C@H](OC(=O)[C@H](O)[C@@H](NC(=O)c4ccccc4)c4ccccc4)C(C)=C1C3(C)C)[C@]1(OC(C)=O)CO[C@@H]1C[C@@H]2O [PCTX, Paclitaxel, reference compound] | 2 nM | – |
